These results are taken from the Deep4Chem optical property database.

This series in a line: solvent given as SMILES.

`Fc1ccc(-c2nc3n(c2-c2ccncc2)CCS3)cc1`: the absorption maximum is, setting by setting: (in C1CCCCC1) 328 nm; (in C1CCOC1) 328.5 nm; (in C1COCCO1) 328.5 nm; (in CC#N) 319 nm; (in CC(C)(C)O) 329.5 nm; (in CC(C)O) 328 nm. Further, the absorption maximum (in CCO) worked out at 325 nm; the absorption maximum (in CCOC(C)=O) is listed as 319 nm; the absorption maximum (in CN(C)C=O) was determined as 326.5 nm; the absorption maximum (in CNC=O) turned out to be 325.5 nm; the absorption maximum (in CO) is recorded as 322.5 nm; the absorption maximum (in CS(C)=O) amounted to 329 nm. Also, the absorption maximum by setting is: (in Cc1ccc(C)cc1) 332 nm; (in Cc1ccccc1) 333.5 nm; (in ClC(Cl)Cl) 329 nm; (in ClCCl) 326 nm; (in O) 322 nm; (in OCCO) 330 nm.
The compound `CC(C)(C)c1ccc2c(c1)c1cc(C(C)(C)C)ccc1n2-c1ccc(S(=O)(=O)c2ccc(-n3c4ccc(C(C)(C)C)cc4c4cc(C(C)(C)C)ccc43)cn2)nc1` yielded an absorption maximum (in Cc1ccccc1) of 365.77 nm.
`CC(C)(C)C#Cc1cc2c(C#CC(C)(C)C)c(C#CC(C)(C)C)c3cc(C#CC(C)(C)C)cc4c(C#CC(C)(C)C)c(C#CC(C)(C)C)c(c1)c2c34` returned an absorption maximum (in ClCCl) of 383 nm.
In the case of `COc1ccc(C(=Cc2ccc(/C=C/c3ccc(C#N)cc3)cc2)c2ccc(OC)cc2)cc1`, the absorption maximum (in C1CCOC1) came out at 379 nm.
The compound `CC(C)[Si](C#Cc1c2ccccc2c(C#C[Si](C(C)C)(C(C)C)C(C)C)c2nc3c(nc12)C1c2ccccc2C3c2ccccc21)(C(C)C)C(C)C` displayed an absorption maximum (in CCCCCC) of 445 nm.
In the case of `Fc1nc(F)c(F)c(C#Cc2nccnc2C#Cc2c(F)c(F)nc(F)c2F)c1F`, for the setting “in CC#N”, the absorption maximum amounted to 305 nm.
In turn, `COC(=O)CNC(=O)CCNc1cccc2ccccc12` registered an absorption maximum (in CCO) of 330 nm.
For `Cc1cn(C(F)(F)F)c(=O)[nH]c1=O`, the absorption maximum (in CC#N) was 255 nm.
Regarding `Cc1cc(C)c(C2=C3C=C(c4ccc(C(C)(C)C)cc4)C(c4ccc(C(C)(C)C)cc4)=[N+]3[B-](F)(F)n3c2cc(-c2ccc(C(C)(C)C)cc2)c3-c2ccc(C(C)(C)C)cc2)c(C)c1`, the absorption maximum by setting is: (in C1CCCCC1) 602 nm; (in C1CCOC1) 602 nm; (in CC#N) 592 nm; (in Cc1ccccc1) 606 nm; (in ClCCl) 599 nm.
As for `CCOC(CN1C(=O)C2=C(c3cccs3)N(CC(OCC)OCC)C(=O)C2=C1c1cccs1)OCC`, the absorption maximum (in ClC(Cl)Cl) is 533 nm.
For `COC(=O)C[C@H](NC(=O)[C@H](Cc1c[nH]c2ccccc12)NC(=O)OC(C)(C)C)C(=O)OC`, the absorption maximum was found to be 280 nm (in CC#N), 280 nm (in CCOC(C)=O) and 280 nm (in CO).
Consider `O=C(O)c1cc(O)c(O)c(O)c1`, for which, where the note is “in O”, the absorption maximum was 258 nm.
As for `Cc1ccc(-c2cnc3nn4ccccc4c3n2)cc1`, the absorption maximum (in C1CCOC1) was determined as 400 nm.
`CCCCn1c2ccccc2c2cc(C#Cc3ccc4ccc5cccc6ccc3c4c56)ccc21` yielded an absorption maximum (in ClCCl) of 402 nm.
Take `CCN1C(=CC2=C([O-])C(=CC3=[N+](CC)c4ccccc4C3(C)C)C2=O)C(C)(C)c2ccccc21`: the absorption maximum reads like this: (in CO) 628 nm; (in ClC(Cl)Cl) 635 nm; (in ClCCl) 637 nm.
`O=P1(c2ccccc2)c2ccc(N3c4ccccc4Sc4ccccc43)cc2-c2cc(N3c4ccccc4Sc4ccccc43)ccc21` had an absorption maximum (in Cc1ccccc1) of 422 nm.
On to `O=c1ccc2cc3c(cc2o1)OCC3`, for which the absorption maximum turned out to be 333 nm (in CC(C)O); 333 nm (in CCO); 330 nm (in CCOCC); 333 nm (in CO); 336 nm (in O).
Where the note is “in ClCCl”, `CCCCCCc1cc2c(=S)c3cc(CCCCCC)cc4c(=S)c5cc(CCCCCC)cc6c(=S)c(c1)c2n(c34)c65` registered an absorption maximum of 572 nm.
`Cc1cc(Br)cn(Cn2cccc(C)c2=O)c1=N` returned an absorption maximum (in CC(=O)O) of 310 nm.
In the case of `CCCCCCN(CCCCCC)c1ccc(C#Cc2c(F)c(F)c(F)c(F)c2F)cc1`, the absorption maximum is, setting by setting: (in CO) 357 nm; (in ClCCl) 363 nm.
As for `CCC1=C(C)C2=Cc3c4ccccc4c4n3[B-](c3ccncc3)(Oc3ccccc3-4)[N+]2=C1C` (stereo unspecified), the absorption maximum reads like this: (in CC#N) 621 nm; (in CCCCCC) 625 nm; (in Cc1ccccc1) 629 nm; (in ClCCl) 627 nm.
`CC1=[N+]2C(=Cc3c4c(cn3[B-]2(F)F)-c2nc-4c(-c3ccccc3)c3ccc([nH]3)c(-c3ccccc3)c3nc(c(-c4ccccc4)c4ccc([nH]4)c2-c2ccccc2)C=C3)C(C)C1` (stereo unspecified) showed an absorption maximum (in ClCCl) of 640 nm.
For the compound `Cc1c(-c2ccc(N3c4ccccc4C(C)(C)c4ccccc43)cc2)ncnc1-c1ccc(N2c3ccccc3C(C)(C)c3ccccc32)cc1`, the absorption maximum (in Cc1ccccc1) amounted to 367.5 nm.
For `c1ccc(B2Nc3cc4c(cc3-c3sccc32)NB(c2ccccc2)c2ccsc2-4)cc1`, the absorption maximum (in ClCCl) was found to be 405 nm.
Take `COC(=O)c1ccc2ccc3cccc4ccc1c2c34`: the absorption maximum (in C1CCOC1) turned out to be 379 nm; the absorption maximum (in CC#N) was 379 nm; the absorption maximum (in CCCCCC) worked out at 379 nm; the absorption maximum (in CCO) came to 380 nm; the absorption maximum (in CN(C)C=O) was 380 nm; the absorption maximum (in CO) amounted to 379 nm. In addition, the absorption maximum (in Cc1ccccc1) worked out at 381 nm and the absorption maximum (in ClCCl) came to 379 nm.
Take `C(=C\c1nc2ccccc2s1)/c1ccc(-c2nc3c4cccnc4c4ncccc4c3[nH]2)cc1`: the absorption maximum reads like this: (in C1CCOC1) 386 nm; (in CC#N) 380 nm; (in CO) 375 nm; (in ClCCl) 384 nm.
In turn, `c1ccc(-n2nc(-c3ccc(N4c5ccccc5Oc5ccccc54)cc3)nc2-c2ccccn2)cc1` yielded an absorption maximum (in ClCCl) of 341 nm.
Still for that read-out and setting: for `N#CC(C#N)=Cc1ccc2c(c1)[nH]c1c3ccccc3ccc21` the value was 436 nm.
Same read-out and setting: for `C(=C\c1nc2c(c(N3CCOCC3)n1)CCCC2)/c1ccccc1` the value was 284 nm.
`COc1cc(OC)cc(C2=C3C(C)=C(I)C(/C=C/c4c[nH]c5ccc([N+](=O)[O-])cc45)=[N+]3[B-](F)(F)n3c(/C=C/c4c[nH]c5ccc([N+](=O)[O-])cc45)c(I)c(C)c32)c1`: the absorption maximum reads like this: (in C1CCOC1) 695 nm; (in CS(C)=O) 712 nm; (in ClCCl) 690 nm.
In the case of `O=[N+]([O-])c1ccc(NCCN(Cc2c3ccccc3cc3ccccc23)c2ccc([N+](=O)[O-])cc2[N+](=O)[O-])c([N+](=O)[O-])c1`, the absorption maximum runs as follows: (in C1CCCCC1) 355 nm; (in C1CCOC1) 372 nm; (in CC#N) 371 nm; (in CC(C)=O) 371 nm; (in CCO) 368 nm; (in CN(C)C=O) 267 nm. Also, the absorption maximum (in CO) came to 369 nm and the absorption maximum (in ClC(Cl)Cl) came out at 355 nm.
In the case of `Cc1nc2c(c[n+]1C)CN1C(=O)N([C@H]3O[C@@H](CO)[C@H](O)[C@@H]3O)C=CC1=N2`, the absorption maximum by setting is: (in CC#N) 390 nm; (in CC(C)=O) 391 nm; (in CCCCO) 390 nm; (in CCCO) 390 nm; (in CCO) 390 nm; (in CO) 390 nm. Further, the absorption maximum worked out at 384 nm (in O), 390 nm (in [2H]OC), 390 nm (in [2H]OCC) and 384 nm (in [2H]O[2H]).
As to `CCCCN1C(=O)c2cccc3c(OC)ccc(c23)C1=O`, the absorption maximum is, setting by setting: (in CC#N) 376 nm; (in CS(C)=O) 484 nm; (in Cc1ccccc1) 362 nm.
As to `F[B-]1(F)n2c(nc3c4ccccc4c4ccccc4c32)-c2cccc[n+]21`, the absorption maximum was 403 nm (in CC#N); 447 nm (in CCCCCC); 404 nm (in CO); 430 nm (in ClC(Cl)Cl); 421 nm (in ClCCl).
With `CCOC(=O)CCCCCn1c2ccc(C)cc2c(=O)c2cc3c(cc21)c(=O)c1cc(C)ccc1n3CCCCCC(=O)OCC`, where the note is “in CO”, the absorption maximum came to 540 nm.
Regarding `O=c1c2cc(Br)ccc2nc2n1[B-](F)(F)[n+]1ccccc1-2`, the absorption maximum is, setting by setting: (in CC#N) 343 nm; (in ClCCl) 358 nm.
On to `COc1ccc2oc(-c3cc4cc(OC)ccc4oc3=O)cc2c1`, for which the absorption maximum stood at 382 nm (in CC#N); 384 nm (in CCOC(C)=O); 389 nm (in CS(C)=O); 388 nm (in Cc1ccccc1); 347 nm (in O).
On to `CCC1=C(C)C2=Cc3c(I)c(I)c(I)n3[B-](F)(F)[N+]2=C1C`, for which the absorption maximum is 543.5 nm (in C1CCCCC1); 528 nm (in CC(C)=O); 536 nm (in CCO); 532 nm (in CCOC(C)=O); 531.5 nm (in CO); 523 nm (in OCC(F)(F)F).
For `F[B-]1(F)n2c(Cl)c(Cl)c(Br)c2C(Oc2ccccc2)=C2C(Br)=C(Cl)C(Cl)=[N+]21`, the absorption maximum (in ClCCl) came to 532 nm.
Turning to `COC(=O)C(NC(=O)OC(C)(C)C)c1ccc2oc(-c3ccc(OC(=O)c4ccccc4)cc3OC(=O)c3ccccc3)nc2c1` (stereo unspecified), the absorption maximum is, setting by setting: (in CC1CCCCC1) 323 nm; (in CC#N) 306 nm; (in CO) 306 nm.
Turning to `CO[Si](c1c2ccccc2cc2ccccc12)(c1c2ccccc2cc2ccccc12)c1c2ccccc2cc2ccccc12`, the absorption maximum (in ClC(Cl)Cl) is recorded as 401 nm.
Regarding `CC1(C)C(/C=C/C=C/C=C/C=C2\N(CCCCS(=O)(=O)[O-])c3ccc4ccccc4c3C2(C)C)=[N+](CCCCS(=O)(=O)[O-])c2ccc3ccccc3c21`, the absorption maximum (in O) was determined as 780 nm.
